# Experimental data reported in ChEMBL document CHEMBL1201862, “PubChem BioAssay data set” (2004).
# Calls of active or inactive are those of the source.
# How the values were obtained:
# cells [1] = format: functional, cell-based
# [2] = viability loss in HepG2 hepatoma cells – cell-based, ATP luminescence, cherry-pick, activator set 2, cytotoxicity control, dose response (AID 1053143); format: functional
# cells [3] = format: functional, cell-based; remark: listed apart in the source
# Nonstructural protein 1 = Nonstructural protein 1 (Influenza A virus, UniProt Q194T2); format: functional, Influenza A virus (A/California/07/2009(H1N1))
# [4] = biological target: Heat shock protein HSP 90-alpha (Homo sapiens, UniProt P07900); format: functional, organism-based
# [5] = biological target: T1, Histone-lysine N-methyltransferase NSD2 (Homo sapiens, UniProt O96028); format: biochemical
# T1 sequence (O96028 whole entry): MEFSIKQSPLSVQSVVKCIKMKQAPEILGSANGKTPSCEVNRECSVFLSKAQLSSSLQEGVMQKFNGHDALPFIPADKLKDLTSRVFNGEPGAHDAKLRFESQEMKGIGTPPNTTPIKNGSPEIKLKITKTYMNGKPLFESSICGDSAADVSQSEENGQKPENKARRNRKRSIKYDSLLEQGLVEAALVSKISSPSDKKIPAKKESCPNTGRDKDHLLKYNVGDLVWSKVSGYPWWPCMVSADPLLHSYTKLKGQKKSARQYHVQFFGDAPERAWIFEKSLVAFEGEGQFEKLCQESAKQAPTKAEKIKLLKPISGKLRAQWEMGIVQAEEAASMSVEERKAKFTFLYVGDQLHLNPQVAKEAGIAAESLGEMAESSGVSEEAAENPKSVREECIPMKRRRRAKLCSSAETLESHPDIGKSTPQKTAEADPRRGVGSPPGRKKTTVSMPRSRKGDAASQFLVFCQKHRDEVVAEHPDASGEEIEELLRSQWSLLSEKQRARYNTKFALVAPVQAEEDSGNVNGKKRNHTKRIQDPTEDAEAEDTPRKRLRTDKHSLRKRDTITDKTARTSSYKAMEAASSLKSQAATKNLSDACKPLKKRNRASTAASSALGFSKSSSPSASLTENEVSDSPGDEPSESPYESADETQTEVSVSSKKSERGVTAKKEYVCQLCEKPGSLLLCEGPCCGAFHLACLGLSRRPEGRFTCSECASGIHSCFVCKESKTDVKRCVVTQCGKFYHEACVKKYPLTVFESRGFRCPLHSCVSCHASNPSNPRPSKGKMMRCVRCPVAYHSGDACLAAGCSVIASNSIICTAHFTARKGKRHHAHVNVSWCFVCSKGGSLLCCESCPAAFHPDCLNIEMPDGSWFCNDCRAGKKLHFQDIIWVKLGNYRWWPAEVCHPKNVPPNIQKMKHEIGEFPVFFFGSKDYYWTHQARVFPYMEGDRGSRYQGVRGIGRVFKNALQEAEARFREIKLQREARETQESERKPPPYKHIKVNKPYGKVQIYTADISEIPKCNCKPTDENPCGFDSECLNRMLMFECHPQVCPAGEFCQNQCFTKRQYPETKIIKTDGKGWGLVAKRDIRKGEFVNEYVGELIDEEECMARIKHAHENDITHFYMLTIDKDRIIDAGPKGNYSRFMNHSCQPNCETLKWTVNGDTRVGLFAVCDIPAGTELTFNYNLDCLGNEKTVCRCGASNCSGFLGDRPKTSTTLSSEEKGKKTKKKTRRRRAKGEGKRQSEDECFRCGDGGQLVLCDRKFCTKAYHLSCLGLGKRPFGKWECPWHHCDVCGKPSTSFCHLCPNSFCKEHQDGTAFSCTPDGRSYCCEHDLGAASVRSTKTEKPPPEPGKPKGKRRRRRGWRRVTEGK
# [6] = inhibition of ADAM10 peptide cleavage – biochemical, FRET peptide substrate, recombinant human ADAM10, selectivity assay for ADAM17 exosite inhibitor project, dose response (AID 743259);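 further: ADAM10 enzyme cleaving a FRET peptide substrate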
# [7] = biological target: Disintegrin and metalloproteinase domain-containing protein 17 (Homo sapiens, UniProt P78536); test: exosite inhibitors of ADAM17, dose response, biochemical (AID 743260)
# [8] = general mammalian cell viability loss – activator set, cherry-pick, cytotoxicity control for miR-122 modulator project, dose response (AID 720690); format: functional, cell-based;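 further: HEK293T human cells scored for general mammalian cytotoxicity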
# [9] = activation of miR-122 Renilla sensor silencing – cell-based, Huh7 psiCHECK-miR122, Renilla luciferase, cherry-picked, dose response (AID 651956); format: functional;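 further: huh7 hepatoma cells stably carrying a psiCHECK-2 miR-122 sensor plasmid; renilla luciferase signal reporting endogenous miR-122 activity after 48 h compound exposure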
# [10] = general mammalian cell viability loss – inhibitor set, cherry-pick, set 2, cytotoxicity control for miR-122 modulator project, dose response (AID 720697); format: functional, cell-based
# Streptococcus = test: GAS UMAA2166 growth inhibition – luminescence, BacTiterGlo, counter-screen for streptokinase expression inhibitor project, dose response (AID 1915); format: functional, organism-based;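 further: potency for reduction of bacterial viability or growth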
# [11] = test system: Streptococcus sp. 'group A'; test: Streptococcus pyogenes SK(-)GAS viability under kanamycin – luminescence, BacTiterGlo, confirmation, counter-screen for streptokinase expression inhibitor project, dose response (AID 1900); format: functional, organism-based
# INS1 = test: INS-1E survival protection against cytokine death – cell-based, luminescence, retest, dose response (AID 449756); format: functional; conditions: Rattus norvegicus;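 further: cell death triggered by IL-1 beta plus TNF-alpha plus IFN-gamma mixture; protective hits raise ATP signal compared with cytokine alone wells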
# cells [12] = format: functional
# [13] = Trypanosoma cruzi growth suppression in host cells – NIH3T3 host cells, beta-gal luminescence, confirmation (AID 2044); format: functional, cell-based;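 further: intracellular parasites grown in NIH/3T3 mouse fibroblasts as host cells; luminescent beta-galactosidase reporter signal from transgenic T. cruzi replicating inside host cells; inhibitors lower the luminescence signal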
# [14] = THP-1 cell cytotoxicity, dose response, cytotoxicity control for non-replicating M. tuberculosis project (AID 489025); format: functional
# [15] = NIH3T3 cell viability loss – ATP luminescence, mouse fibroblasts, counter-screen, dose response (AID 2010); format: functional, cell-based;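 further: cells exposed to compound for about 90 hours before reading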
# [16] = Vero E6 cell cytotoxicity, dose response, cytotoxicity control for non-replicating M. tuberculosis project, secondary assay (AID 492998); format: functional, VeroE6; conditions: Vero C1008
# Protein RecA = biological target: T2, Protein RecA (Mycobacterium tuberculosis, UniProt P9WHJ3); test: Fluorescence Cell-Free Homogeneous Dose Retest to Identify Inhibitors of RecA-Intein Splicing Activity. [Related pubchem assays (depositor defined):AID2097, AID2223, AID489010, AID492950]; format: functional
# T2 sequence (P9WHJ3 whole entry): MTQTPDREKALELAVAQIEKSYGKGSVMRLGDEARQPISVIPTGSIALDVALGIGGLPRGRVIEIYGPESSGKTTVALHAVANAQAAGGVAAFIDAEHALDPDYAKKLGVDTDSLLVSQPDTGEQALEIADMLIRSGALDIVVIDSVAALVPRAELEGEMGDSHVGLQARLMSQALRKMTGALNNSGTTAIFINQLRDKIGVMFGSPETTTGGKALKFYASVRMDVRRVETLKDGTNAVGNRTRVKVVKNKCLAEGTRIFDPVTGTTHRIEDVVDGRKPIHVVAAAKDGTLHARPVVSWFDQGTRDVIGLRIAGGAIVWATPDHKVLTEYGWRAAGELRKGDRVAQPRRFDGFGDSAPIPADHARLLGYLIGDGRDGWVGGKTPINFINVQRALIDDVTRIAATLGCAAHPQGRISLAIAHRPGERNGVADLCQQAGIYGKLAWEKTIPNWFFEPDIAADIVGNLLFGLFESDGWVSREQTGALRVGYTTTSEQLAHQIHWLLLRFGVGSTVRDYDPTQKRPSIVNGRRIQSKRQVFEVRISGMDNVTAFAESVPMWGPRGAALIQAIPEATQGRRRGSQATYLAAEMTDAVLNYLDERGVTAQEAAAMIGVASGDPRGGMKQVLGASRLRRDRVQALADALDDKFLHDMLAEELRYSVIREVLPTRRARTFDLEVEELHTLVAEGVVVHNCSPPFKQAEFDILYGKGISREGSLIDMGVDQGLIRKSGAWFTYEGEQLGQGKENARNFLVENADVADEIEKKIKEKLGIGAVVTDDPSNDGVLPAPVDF
# Caspase-6 = biological target: T3, Caspase-6 (Homo sapiens, UniProt P55212); test: inhibition of CASP6 peptide cleavage – biochemical, VEID-R110 fluorescence, cherry-pick, dose response (AID 720632)
# T3 sequence (P55212 whole entry): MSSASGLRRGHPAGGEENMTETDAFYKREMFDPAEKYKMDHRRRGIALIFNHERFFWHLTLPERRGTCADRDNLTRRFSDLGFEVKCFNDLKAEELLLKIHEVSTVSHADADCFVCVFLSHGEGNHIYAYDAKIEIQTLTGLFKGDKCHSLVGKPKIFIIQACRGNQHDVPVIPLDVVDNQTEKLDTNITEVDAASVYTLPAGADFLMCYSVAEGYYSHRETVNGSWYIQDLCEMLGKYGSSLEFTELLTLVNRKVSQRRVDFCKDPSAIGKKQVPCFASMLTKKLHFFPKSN
# [17] = biological target: T4, Tyrosyl-DNA phosphodiesterase 2 (Homo sapiens, UniProt O95551); test: potency against TDP2 phosphodiesterase activity – biochemical, epi absorbance, IC50, dose response (AID 743297)
# T4 sequence (O95551 whole entry): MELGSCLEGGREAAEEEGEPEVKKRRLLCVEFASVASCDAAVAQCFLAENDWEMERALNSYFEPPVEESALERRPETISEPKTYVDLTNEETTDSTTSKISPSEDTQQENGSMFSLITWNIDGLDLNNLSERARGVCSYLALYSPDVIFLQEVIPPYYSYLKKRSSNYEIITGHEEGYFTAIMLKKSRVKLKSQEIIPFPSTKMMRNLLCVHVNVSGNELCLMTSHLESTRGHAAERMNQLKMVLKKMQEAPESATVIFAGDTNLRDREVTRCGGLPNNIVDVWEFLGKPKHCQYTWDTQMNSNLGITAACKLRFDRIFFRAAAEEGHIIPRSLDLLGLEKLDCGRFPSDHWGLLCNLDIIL
# [18] = biological target: T5, Replicative DNA helicase DnaB (Mycobacterium tuberculosis, UniProt P9WMR3); test: DnaB intein splicing inhibitors, dose response, biochemical, cell-free fluorescence (AID 449749); format: functional
# T5 sequence (P9WMR3 whole entry): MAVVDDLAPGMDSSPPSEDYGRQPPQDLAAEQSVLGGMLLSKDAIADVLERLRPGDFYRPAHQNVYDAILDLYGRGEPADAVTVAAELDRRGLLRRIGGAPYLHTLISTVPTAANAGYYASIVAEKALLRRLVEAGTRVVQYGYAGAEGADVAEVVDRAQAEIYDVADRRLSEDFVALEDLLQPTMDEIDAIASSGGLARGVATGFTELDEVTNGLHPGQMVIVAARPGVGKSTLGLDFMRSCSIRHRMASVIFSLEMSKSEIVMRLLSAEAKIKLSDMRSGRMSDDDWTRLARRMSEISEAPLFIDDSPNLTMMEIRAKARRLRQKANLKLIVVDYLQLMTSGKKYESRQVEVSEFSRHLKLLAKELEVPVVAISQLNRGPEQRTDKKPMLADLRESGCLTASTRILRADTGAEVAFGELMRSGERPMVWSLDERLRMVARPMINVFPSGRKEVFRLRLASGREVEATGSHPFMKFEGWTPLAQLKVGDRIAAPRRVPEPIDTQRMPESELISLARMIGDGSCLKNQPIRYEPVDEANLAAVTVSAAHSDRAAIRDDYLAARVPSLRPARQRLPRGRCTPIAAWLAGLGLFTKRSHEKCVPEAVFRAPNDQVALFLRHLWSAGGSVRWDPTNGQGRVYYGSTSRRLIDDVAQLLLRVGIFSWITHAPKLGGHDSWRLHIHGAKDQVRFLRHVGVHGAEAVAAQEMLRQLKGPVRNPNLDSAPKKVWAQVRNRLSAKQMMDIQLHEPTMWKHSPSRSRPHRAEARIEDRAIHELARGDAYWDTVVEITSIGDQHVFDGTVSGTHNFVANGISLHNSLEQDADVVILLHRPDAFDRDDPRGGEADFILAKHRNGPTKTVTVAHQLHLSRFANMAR
# [19] = fluconazole-exposed Candida albicans growth modulators – fluorescence, retest, confirmation (AID 2467); format: functional, cell-based
# [20] = viability of uninfected HEp-2 cells – cell-based, HTS, cytotoxicity control for RSV inhibitor project, dose response (AID 2410); format: functional; conditions: human respiratory syncytial virus
# [21] = NIH-3T3 fibroblast cytotoxicity, dose response, cytotoxicity control, cell-based, fluorescence, Alamar Blue, secondary assay (AID 2327); format: functional;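 further: NIH-3T3 mouse fibroblasts cultured with fluconazole at 8 µg/mL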
# Genome polyprotein = Genome polyprotein (dengue virus type 2, UniProt P29990); test: flavivirus cap methylation enzyme inhibition – biochemical, confirmation dose response, primary screen (AID 588689); format: functional
# Chain of Genome polyprotein (P29990 2492-3391 limits assumed): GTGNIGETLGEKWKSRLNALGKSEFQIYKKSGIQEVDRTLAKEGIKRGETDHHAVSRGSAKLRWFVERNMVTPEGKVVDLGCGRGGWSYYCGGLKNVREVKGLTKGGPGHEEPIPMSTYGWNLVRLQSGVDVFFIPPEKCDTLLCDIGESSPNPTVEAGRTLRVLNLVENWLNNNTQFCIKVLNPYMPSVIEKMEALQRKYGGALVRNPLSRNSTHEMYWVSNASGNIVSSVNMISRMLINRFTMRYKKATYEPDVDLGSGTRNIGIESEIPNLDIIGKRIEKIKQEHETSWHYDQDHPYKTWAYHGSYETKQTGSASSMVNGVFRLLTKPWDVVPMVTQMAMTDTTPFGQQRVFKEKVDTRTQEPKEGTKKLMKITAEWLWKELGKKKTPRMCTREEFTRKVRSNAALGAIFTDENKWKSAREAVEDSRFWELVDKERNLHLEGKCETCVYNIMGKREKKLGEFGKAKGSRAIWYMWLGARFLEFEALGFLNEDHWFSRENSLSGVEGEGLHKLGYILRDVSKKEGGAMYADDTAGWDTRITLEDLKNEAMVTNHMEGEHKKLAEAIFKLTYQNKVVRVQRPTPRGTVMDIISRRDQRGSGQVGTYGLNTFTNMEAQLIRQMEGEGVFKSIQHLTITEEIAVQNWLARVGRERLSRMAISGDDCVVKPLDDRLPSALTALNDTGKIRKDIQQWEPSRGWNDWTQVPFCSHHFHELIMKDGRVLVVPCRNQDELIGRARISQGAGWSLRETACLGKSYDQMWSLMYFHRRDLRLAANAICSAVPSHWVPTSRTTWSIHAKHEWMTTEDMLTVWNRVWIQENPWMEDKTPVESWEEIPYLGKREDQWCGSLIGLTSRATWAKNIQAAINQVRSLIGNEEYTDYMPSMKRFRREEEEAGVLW
# Chain of Disintegrin and metalloproteinase domain-containing protein 17 (P78536 whole entry, the tested form may be a part): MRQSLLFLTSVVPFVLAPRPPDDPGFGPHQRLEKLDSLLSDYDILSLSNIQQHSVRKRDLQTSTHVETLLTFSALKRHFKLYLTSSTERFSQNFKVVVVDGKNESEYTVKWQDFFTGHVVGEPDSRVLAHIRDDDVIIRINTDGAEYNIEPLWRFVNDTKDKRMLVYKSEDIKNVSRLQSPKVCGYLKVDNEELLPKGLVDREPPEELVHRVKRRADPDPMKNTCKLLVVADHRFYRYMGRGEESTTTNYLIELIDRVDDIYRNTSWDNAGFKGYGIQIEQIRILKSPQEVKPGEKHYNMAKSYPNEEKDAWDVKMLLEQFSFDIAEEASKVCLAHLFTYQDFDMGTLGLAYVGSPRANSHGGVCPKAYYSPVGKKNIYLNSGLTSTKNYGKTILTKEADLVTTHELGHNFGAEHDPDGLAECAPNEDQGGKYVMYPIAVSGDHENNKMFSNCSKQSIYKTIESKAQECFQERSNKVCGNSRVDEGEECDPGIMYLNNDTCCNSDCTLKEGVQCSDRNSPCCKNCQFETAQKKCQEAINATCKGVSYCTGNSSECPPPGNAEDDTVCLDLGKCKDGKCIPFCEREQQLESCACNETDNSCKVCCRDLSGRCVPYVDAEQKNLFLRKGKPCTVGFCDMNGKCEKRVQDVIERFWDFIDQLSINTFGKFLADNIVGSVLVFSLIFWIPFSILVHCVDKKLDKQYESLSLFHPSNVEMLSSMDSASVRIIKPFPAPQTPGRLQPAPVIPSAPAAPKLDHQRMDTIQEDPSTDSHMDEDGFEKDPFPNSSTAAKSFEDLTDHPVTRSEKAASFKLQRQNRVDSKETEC
# Chain of Nonstructural protein 1 (Q194T2 whole entry): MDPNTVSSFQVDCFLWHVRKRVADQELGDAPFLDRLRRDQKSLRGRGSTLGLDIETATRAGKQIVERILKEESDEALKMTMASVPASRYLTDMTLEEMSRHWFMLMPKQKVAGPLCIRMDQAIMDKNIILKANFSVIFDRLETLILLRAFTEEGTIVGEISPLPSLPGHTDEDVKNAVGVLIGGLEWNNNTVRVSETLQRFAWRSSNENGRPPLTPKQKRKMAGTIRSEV
structure (smiles),measurement,setting,value
COc1ccc(CCNC(=O)c2cc(-c3ccco3)on2)cc1OC,EC50,cells [1],> 350 µM (not active)
same,AC50,[2],26 µM (active)
same,EC50,cells [3],12.5 µM (active)
CCN1/C(=C/c2ccc3cc(C)cc(C)c3[n+]2CC)Sc2cc(C)ccc21,IC50,Nonstructural protein 1,17.6 µM (active)
same,AC50,[4],2.86 µM (active)
same,AC50,[5],7.93 µM (active)
O=C(CSc1nc2ccccc2c(=O)n1-c1ccccc1Cl)Nc1cccc(S(=O)(=O)N2CCOCC2)c1,IC50,[6],> 69.5 µM (inactive)
same,IC50,[7],> 69.5 µM (inactive)
O=C(/C=C\c1ccco1)Oc1cccc2cccnc12,AC50,[2],26 µM (active)
CN1C(=O)c2cc(NC(=O)c3ccc(C(F)(F)F)cc3)ccc2OC[C@@H]2O[C@@H](CC(=O)NC3Cc4ccccc4C3)CC[C@@H]21,AC50,[8],49.1 µM (active)
same,AC50,[9],4.71 µM (active)
same,AC50,[10],< 0.195 µM (active)
Cc1ccc(C(C(=O)NC2CCCCC2)N(Cc2ccccc2)C(=O)Cc2c[nH]c3ccccc23)o1 (stereo unspecified),IC50,[6],10.3 µM (inactive)
same,IC50,[7],> 69.5 µM (inactive)
Cc1ccc(C(=O)Nc2nc3ccc(S(C)(=O)=O)cc3s2)o1,AC50,[2],26 µM (active)
Oc1ccccc1/C=N/Nc1nc2ccccc2o1,AC50,[8],5.79 µM (active)
same,EC50,Streptococcus,4.17 µM (active)
same,EC50,[11],1.9 µM (active)
same,EC50,cells [1],4.02 µM (active)
same,AC50,INS1,1.59 µM (active)
same,IC50,cells [12],33.3 µM (active)
same,EC50,[13],2.92 µM (active)
same,CC50,[14],1.68 µM (active)
same,AC50,[10],2.53 µM (active)
same,EC50,[15],> 60 µM (not active)
same,CC50,[16],2.59 µM (active)
same,EC50,cells [3],> 350 µM (not active)
Cc1nnc(N/N=C/c2ccccc2O)n1N,EC50,Protein RecA,4.08 µM (active)
same,AC50,Caspase-6,13.3 µM (active)
same,IC50,[17],> 128 µM (inactive)
same,AC50,[18],7.65 µM (active)
C=CCOc1ccc(/C=C2\SC(=S)N(NS(=O)(=O)c3ccc(C)cc3)C2=O)cc1,EC50,[19],1.66 µM (active)
same,CC50,[20],25 µM (active)
same,EC50,[21],> 160 µM (inactive)
same,IC50,Genome polyprotein,32.9 µM (active)
same,AC50,[5],11.7 µM (active)
